Data: patent US20050053668A1, “Skeletally targeted nanoparticles” (Southwest Research Institute, priority 2003, published 2005)

Assays:
hindlimb unloaded rats = conditions: cited from earlier work
myeloma cell = conditions: in vitro; cited from earlier work
[1] = cited from earlier work
panel of tumor cells = conditions: cited from earlier work
unloaded bones = conditions: infusion; cited from earlier work
[2] = assay type: physicochemical
Protocol: Lovastatin was encapsulated in MBP-lipid conjugate micelles at ratios ranging from about 1:1 to 1:50 mol:mol lovastatin:lipid using the phase separation technique. All preparations initially produced clear, colorless solutions, indicating complete solubilization of lovastatin by the lipid. However, over time, usually within about 24 hours, needle-like crystals were observed on the surface of the fluid. […] The crystals were confirmed to be lovastatin by HPLC analysis.

## TGF-β
Hindlimb unloaded rats; infusion 2 μg/kg/day, control animals
  effect on bone formation in control animals: has no effect on bone formation
Hindlimb unloaded rats; infusion 2 μg/kg/day, hindlimb unloading in rats
  effect on unloading-induced bone changes: corrects the decrease in bone mass, calcium content, osteoblast number and mineralization rate
Hindlimb unloaded rats; infusion, normal and unloaded rats
  effect on indices of bone resorption: decreases the indices of bone resorption

## CC(C)C[C@H](NC(=O)[C@H](Cc1ccccc1)NC(=O)c1cnccn1)B(O)O [PS-341]
Myeloma cell
  inhibition of myeloma cell growth and survival: potent inhibitor
[1]
  side-effects in clinical use: thrombocytopenia, peripheral neuropathy, hypotension, and, in severe cases, cardiovascular toxicity
Panel of tumor cells
  cytotoxicity: cytotoxic

## IGF-1: insulin-like growth factor, regulates bone formation
Unloaded bones
  dose required to demonstrate any protective effect against unloading: 2 mg/kg/day

## CC[C@H](C)C(=O)O[C@H]1C[C@@H](C)C=C2C=C[C@H](C)[C@H](CC[C@@H]3C[C@@H](O)CC(=O)O3)[C@H]21 [lovastatin]
[2]
  amount of stabilized lovastatin after ageing: increased slightly
  lovastatin stabilized in micelles: about 0.03 μg/μg of lipid
  lovastatin stabilized in micelles, molar ratio: ~1:5 mol:mol lovastatin:lipid
[2]; micelles of MBP-based ligand-phospholipid conjugate, FIG. 9
  lovastatin encapsulated before free drug precipitates: about 0.03 μg of lovastatin/μg of lipid
[2]; preparations 1:1 to 1:50 mol:mol lovastatin:lipid
  time until needle-like lovastatin crystals were observed: ≤ 24 h
